# Measured values as given in US20240317777A1, “NOVEL MACROCYCLIC AMINOPYRAZOLE COMPOUNDS AS CDK2 INHIBITORS” (Accutar Biotechnology Inc., priority 2023, published 2024).
# Where two headings read alike, the source gives them in different places.
# Legend:
# [1] = test system: Phospho-Rb (Ser807/811) in OVCAR3 cells; assay: Phospho-Rb expression inhibition in OVCAR3 cells quantified by In Cell Western; assay type: cell-based; details: read-out: OVCAR-3 pRb IC50
# Protocol: Phospho-Rb Expression Inhibition in OVCAR3 Cells Quantified by in Cell Western
# OVCAR3 cells were obtained from American Type Culture Collection (ATCC, HTB-161). OVCAR3 cells were plated in 96-well plates (VWR #10062-900, or Corning #3904) in 90 uL culture medium at a density of 20,000 cells/well in the RPM11640 growth medium containing 10% FBS and 1% Penicillin Streptomycin, and then incubated at 37° C. overnight. The following day, the test compound was administered to the cells by using 1000× compound stock solution prepared in DMSO at various concentrations. 1000× compound stock solution was first diluted in culturing medium to 10x, then 10 uL compound medium was added to each well in the cell plates. After administration of the compound, the cells were then incubated at 37° C. for 24 hours. Upon completion, the cells were washed with PBS briefly. 150 uL/well of 4% formaldehyde was added and the plates were incubated at room temperature for 20 mins. The cells were washed with PBS briefly, and permeabilized with 150 uL/well of ice cold 100% methanol for 10 mins. The cells were washed with PBS briefly and blocked with 100 uL/well LI-COR blocking buffer for 1 hr at room temperature with gentle shaking. The cells were incubated overnight at 4° C. with 50 uL primary antibody rabbit anti-Phospho-Rb (Ser807/811) (1:500, Cell Signaling, #8516) and anti-Rb (1:200, Santa Cruz, sc-73598) diluted in Intercept Blocking Buffer (LI-COR, #927-60001) containing 0.1% Tween 20. The next day, the cells were washed with 200 uL PBS containing 0.1% Tween 20, 5×5 mins at room temperature with gentle shaking, and incubated with 50 uL secondary antibody, IRDye® 800CW Goat anti-Rabbit IgG (1:1000, LI-COR, #926-32211) and IRDye® 680RD Goat anti-Mouse IgG (1:1000, LI-COR, #926-68070), in LI-COR blocking buffer with 0.2% Tween 20 for 1 hr at room temperature with gentle shaking. The cells were washed with 200 uL PBS containing 0.1% Tween 20, 5×5 mins at room temperature with gentle shaking. The cells were washed with PBS for 5 mins. 100 uL fresh PBS was added to each well and the plates were imaged on a LI-COR Odyssey CLX plate reader.
# [2] = test system: CCNE1-amplified OVCAR3 cells; assay: Cell growth inhibition of CCNE1-amplified OVCAR3 cells (CellTiter-Glo); assay type: cell-based; details: 6 days
# Protocol: Cell Growth Inhibition of CCNE1-Amplified OVCAR3 Cells
# OVCAR3 cells were seeded in 96-well plates at 2000 cells/well in 90 μl of RPM11640 growth medium containing 10% FBS and 1% Penicillin Streptomycin, and then incubated at 37° C. overnight. The following day, the test compound was administered to the cells by using 1000× compound stock solution prepared in DMSO at various concentrations. 1000× compound stock solution was first diluted in culturing medium to 10x, then 10 uL compound medium was added to each well in the cell plates. After administration of the compound, the cells were then incubated at 37° C. for 6 days. Upon completion, the plates were equilibrated at room temperature for approximately 10 minutes. 100 ul of CellTiter-Glo® Reagent (Promega) was added to each well. The plates were then incubated at room temperature for 10 minutes and luminescence was recorded by EnSpire plate reader (PerkinElmer).
# [3] = Homo sapiens, OVCAR-3, 24 hours
Compound,"IC50 [1, 3]","IC50 ([2]; Homo sapiens, OVCAR-3, 144 h)",IC50 ([1]; 24 hours),IC50 [2]
"O=C1NCCCOc2cc(ccn2)Nc2cc([nH]n2)[C@H]2CC[C@H](C2)O1 [Compound 2, (1^1S,1^3R,Z)-2^1H-5,11-dioxa-3,9-diaza-4(4,2)-pyridina-2(3,5)-pyrazola-1(1,3)-cyclopentanacycloundecaphan-10-one]",> 250 nM,> 250 nM,–,–
"C[C@@H]1CCC(C)(C)NC(=O)O[C@@H]2CC[C@@H](C2)c2cc([nH]n2)Nc2cncc(c2)O1 [Compound 123, (1^1S,1^3R,6R,Z)-6,9,9-trimethyl-2^1H-5,12-dioxa-3,10-diaza-4(3,5)-pyridina-2(3,5)-pyrazola-1(1,3)-cyclopentanacyclododecaphan-11-one]",> 250 nM,> 250 nM,–,–
"O=C1NC2CCN(CC2)c2cc(ccn2)Nc2cc(n[nH]2)[C@H]2CC[C@H](C2)O1 [Compound 136, (5^1S,5^3R,Z)-4^1H-6-oxa-3,8-diaza-2(2,4)-pyridina-1(1,4)-piperidina-4(5,3)-pyrazola-5(1,3)-cyclopentanacyclooctaphan-7-one]",> 250 nM,> 250 nM,–,–
"C[C@@H]1CCCNC(=O)O[C@@H]2CC[C@@H](C2)c2cc([nH]n2)Nc2cccc(c2)O1 [Compound 156, (1^1S,1^3R,6R,Z)-6-methyl-2^1H-5,12-dioxa-3,10-diaza-2(3,5)-pyrazola-4(1,3)-benzena-1(1,3)-cyclopentanacyclododecaphan-11-one]",> 250 nM,> 250 nM,–,–
"O=C1NCCCO[C@H](C(F)(F)F)c2cc(ccn2)Nc2cc(n[nH]2)[C@H]2CC[C@H](C2)O1 [Compound 160, (1^1S,1^3R,5S,Z)-5-(trifluoromethyl)-2^1H-6,12-dioxa-3,10-diaza-4(4,2)-pyridina-2(3,5)-pyrazola-1(1,3)-cyclopentanacyclododecaphan-11-one]",50 to 250 nM,50 to 250 nM,–,–
"C[C@@H]1NC(=O)O[C@H]2C[C@H](C[C@H]2F)c2cc([nH]n2)Nc2ccnc(c2)OCCC1(F)F [Compound 226, (1^1R,1^3S,1^4R,9S,Z)-1^4,8,8-trifluoro-9-methyl-2^1H-5,12-dioxa-3,10-diaza-4(4,2)-pyridina-2(3,5)-pyrazola-1(1,3)-cyclopentanacyclododecaphan-11-one]",2 to 10 nM,–,–,–
"C[C@@H]1NC(=O)O[C@@H]2C[C@@H](C[C@@H]2F)c2cc([nH]n2)Nc2ccnc(c2)OCCC1(F)F [Compound 227, (1^1S,1^3R,1^4S,9S,Z)-1^4,8,8-trifluoro-9-methyl-2^1H-5,12-dioxa-3,10-diaza-4(4,2)-pyridina-2(3,5)-pyrazola-1(1,3)-cyclopentanacyclododecaphan-11-one]",10 to 50 nM,–,–,–
"C[C@@H]1NC(=O)O[C@H]2CC(C[C@H]2F)c2n[nH]c(c2F)Nc2ccnc(c2)OCCC1(F)F [Compound 239, (1^1R,1^3S,1^4R,9S,E)-1^4,2^4,8,8-tetrafluoro-9-methyl-2^1H-5,12-dioxa-3,10-diaza-4(4,2)-pyridina-2(3,5)-pyrazola-1(1,3)-cyclopentanacyclododecaphan-11-one]",10 to 50 nM,–,–,–
"C[C@@H]1NC(=O)O[C@@H]2CC(C[C@@H]2F)c2n[nH]c(c2F)Nc2ccnc(c2)OCCC1(F)F [Compound 240, (1^1S,1^3R,1^4S,9S,E)-1^4,2^4,8,8-tetrafluoro-9-methyl-2^1H-5,12-dioxa-3,10-diaza-4(4,2)-pyridina-2(3,5)-pyrazola-1(1,3)-cyclopentanacyclododecaphan-11-one]",10 to 50 nM,–,–,–
"C[C@H]1CCCOc2cncc(n2)Nc2[nH]nc(c2F)C2C[C@@H](F)[C@H](C2)OC(=O)N1 [Compound 243, (1^1R,1^3S,1^4R,9S,E)-1^4,2^4-difluoro-9-methyl-2^1H-5,12-dioxa-3,10-diaza-4(2,6)-pyrazina-2(3,5)-pyrazola-1(1,3)-cyclopentanacyclododecaphan-11-one]",≤ 2 nM,–,–,–

# Results, then the molecule that gave them:
"IC50 [1, 3]","IC50 ([2]; Homo sapiens, OVCAR-3, 144 h)",IC50 ([1]; 24 hours),IC50 [2],Compound
50 to 250 nM,> 250 nM,–,–,"C[C@@H]1CCC(C)(C)NC(=O)O[C@@H]2CC[C@@H](C2)c2cc([nH]n2)Nc2ccnc(c2)O1 [Compound 112, (1^1S,1^3R,6R,Z)-6,9,9-trimethyl-2^1H-5,12-dioxa-3,10-diaza-4(4,2)-pyridina-2(3,5)-pyrazola-1(1,3)-cyclopentanacyclododecaphan-11-one]"
> 250 nM,> 250 nM,–,–,"O=C1N[C@H](C(F)(F)F)CCCOc2cc(ccn2)Nc2cc(n[nH]2)[C@H]2CC[C@H](C2)O1 [Compound 127, (1^1S,1^3R,9S,Z)-9-(trifluoromethyl)-2^1H-5,12-dioxa-3,10-diaza-4(4,2)-pyridina-2(3,5)-pyrazola-1(1,3)-cyclopentanacyclododecaphan-11-one]"
50 to 250 nM,50 to 250 nM,–,–,"C[C@H]1Oc2cc(ccn2)Nc2cc(n[nH]2)[C@H]2CC[C@H](C2)OC(=O)N[C@H]2C[C@@H]1C2 [Compound 143, (1^1S,1^3R,7^1S,7^3S,6R,Z)-6-methyl-2^1H-5,10-dioxa-3,8-diaza-4(4,2)-pyridina-2(3,5)-pyrazola-1(1,3)-cyclopentana-7(1,3)-cyclobutanacyclodecaphan-9-one]"
–,–,> 250 nM,> 250 nM,"CC1CCCNC(=O)OC2CCC(C2)c2cc([nH]n2)Nc2cc(c[n+]([O-])c2)O1 [Compound 153, (1^1S,1^3R,6R,Z)-6-methyl-11-oxo-2^1H-5,12-dioxa-3,10-diaza-4(3,5)-pyridin-1-iuma-2(3,5)-pyrazola-1(1,3)-cyclopentanacyclododecaphane 41-oxide]"
–,–,50 to 250 nM,> 250 nM,"CC1CCCNC(=O)OC2CCC(C2)c2cc([nH]n2)Nc2cc(c[n+]([O-])c2)O1 [Compound 154, (1^1S,1^3R,6S,Z)-6-methyl-11-oxo-2^1H-5,12-dioxa-3,10-diaza-4(3,5)-pyridin-1-iuma-2(3,5)-pyrazola-1(1,3)-cyclopentanacyclododecaphane 41-oxide]"
> 250 nM,> 250 nM,–,–,"[2H]C1([2H])CC[C@H](C)NC(=O)O[C@@H]2CC[C@@H](C2)c2cc([nH]n2)Nc2cc(ncc2F)O1 [Compound 175, (1^1S,1^3R,9S,Z)-4^5-fluoro-9-methyl-2^1H-5,12-dioxa-3,10-diaza-4(4,2)-pyridina-2(3,5)-pyrazola-1(1,3)-cyclopentanacyclododecaphan-11-one-6,6-d2]"
10 to 50 nM,50 to 250 nM,–,–,"C[C@H]1CCCOc2cc(cc(F)n2)Nc2cc(n[nH]2)[C@H]2CC[C@H](C2)OC(=O)N1 [Compound 178, (1^1S,1^3R,9S,Z)-4^6-fluoro-9-methyl-2^1H-5,12-dioxa-3,10-diaza-4(4,2)-pyridina-2(3,5)-pyrazola-1(1,3)-cyclopentanacyclododecaphan-11-one]"
> 250 nM,> 250 nM,–,–,"C[C@H]1CCCOc2ncc(F)c(c2F)Nc2cc(n[nH]2)[C@H]2CC[C@H](C2)OC(=O)N1 [Compound 180, (1^1S,1^3R,9S,Z)-4^3,4^5-difluoro-9-methyl-2^1H-5,12-dioxa-3,10-diaza-4(4,2)-pyridina-2(3,5)-pyrazola-1(1,3)-cyclopentanacyclododecaphan-11-one]"
> 250 nM,> 250 nM,–,–,"C[C@H]1CCCOc2cc(ccn2)Nc2[nH]nc(c2Cl)[C@H]2CC[C@H](C2)OC(=O)N1 [Compound 184, (1^1S,1^3R,9S,E)-2^4-chloro-9-methyl-2^1H-5,12-dioxa-3,10-diaza-4(4,2)-pyridina-2(3,5)-pyrazola-1(1,3)-cyclopentanacyclododecaphan-11-one]"
≤ 2 nM,–,–,–,"C[C@H]1CCCOc2cncc(n2)Nc2cc(n[nH]2)C2C[C@@H](F)[C@H](C2)OC(=O)N1 [Compound 242, (1^1R,1^3S,1^4R,9S,Z)-1^4-fluoro-9-methyl-2^1H-5,12-dioxa-3,10-diaza-4(2,6)-pyrazina-2(3,5)-pyrazola-1(1,3)-cyclopentanacyclododecaphan-11-one]"
